# US7560468B2, “Substituted 1,4,8-triazaspiro[4,5]decan-2-one compounds” (Gruenenthal GmbH, priority 2004, dated 2009)
# Legend:
# 5-HT transporter = molecular target: T1, 5-HT transporter (Rattus norvegicus, UniProt P31652); assay: Inhibition of 5-HT uptake in synaptosomes; assay type: biochemical; settings: rat, 1 μM
# T1 construct: from tissue; host or cells: rat brain synaptosomes (marrow/medulla and pons), P2 fraction
# NA transporter = assay: Inhibition of noradrenalin uptake in synaptosomes; assay type: biochemical
# [1] = test system: batrachotoxin (BTX) binding site of the sodium channel; assay: Affinity to the batrachotoxin (BTX) binding site of the sodium channel; settings: rat cerebrocortex synaptosomes, [3H]-batrachotoxinin A20 α-benzoate 10 nM; test concentration not given
# T1 sequence (P31652 whole entry): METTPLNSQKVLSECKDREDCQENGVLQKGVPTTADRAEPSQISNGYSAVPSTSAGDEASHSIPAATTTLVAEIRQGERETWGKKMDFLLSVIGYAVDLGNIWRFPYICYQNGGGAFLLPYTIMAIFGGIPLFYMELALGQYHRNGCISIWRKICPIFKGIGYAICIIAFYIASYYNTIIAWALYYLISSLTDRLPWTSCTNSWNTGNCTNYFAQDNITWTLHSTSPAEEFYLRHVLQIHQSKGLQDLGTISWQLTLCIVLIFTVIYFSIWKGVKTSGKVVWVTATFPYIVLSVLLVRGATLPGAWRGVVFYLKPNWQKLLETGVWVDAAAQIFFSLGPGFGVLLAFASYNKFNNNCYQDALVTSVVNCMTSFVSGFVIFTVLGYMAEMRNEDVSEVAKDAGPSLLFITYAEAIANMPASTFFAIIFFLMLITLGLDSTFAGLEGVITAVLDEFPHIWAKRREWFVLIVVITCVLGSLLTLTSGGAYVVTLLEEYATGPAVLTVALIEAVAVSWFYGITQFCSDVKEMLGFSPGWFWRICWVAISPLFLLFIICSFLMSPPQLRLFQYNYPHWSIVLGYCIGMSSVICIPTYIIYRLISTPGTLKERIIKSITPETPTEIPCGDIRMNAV
"Uptake_5-HT, rat, 1 μM, % inhibition (5-HT transporter) [%]",SMILES,"Uptake (NA), rat, 10 μM, % inhibition (NA transporter) [%]",BTX Inhibition [1]
54,"O=C1NC2(CCN(S(=O)(=O)c3ccccc3F)CC2)NC1Cc1ccccc1 (stereo not shown) [Example 7, 3-Benzyl-8-(2-fluorobenzolsulfonyl)-1,4,8-triazaspiro[4,5]decan-2-one]",32,
52,"COc1cc(C)c(S(=O)(=O)N2CCC3(CC2)NC(C(C)C)C(=O)N3Cc2ccccc2F)c(C)c1C (stereo not shown) [Example 11, 1-(2-Fluorobenzyl)-3-isopropyl-8-(4-methoxy-2,3,6-trimethylbenzolsulfonyl)-1,4,8-triazaspiro[4,5]decan-2-one]",37,
,"COC(=O)c1ccccc1NC(=S)N1CCC2(CC1)NC(CCSC)C(=O)N2Cc1ccccc1C#N (stereo not shown) [Example 153, Methyl 2-{[1-(2-cyanobenzyl)-3-(2-methylsulfanylethyl)-2-oxo-1,4,8-triazaspiro[4,5]decan-8-carbothioyl]-amino}-benzoate]",30,53
,"COc1ccccc1NC(=S)N1CCC2(CC1)NC(C(C)C)C(=O)N2Cc1ccccc1 (stereo not shown) [Example 155, 1-Benzyl-3-isopropyl-2-oxo-1,4,8-triazaspiro[4,5]decan-8-thiocarboxylic acid (2-methoxy-benzol)amide]",52,32
,"CC(C)C1NC2(CCN(C(=S)Nc3cc(F)ccc3F)CC2)N(Cc2ccccc2)C1=O (stereo not shown) [Example 157, 1-Benzyl-3-isopropyl-2-oxo-1,4,8-triazaspiro[4,5]decan-8-thiocarboxylic acid (2,5-difluorobenzol)amide]",38,39
,"CCCCN1C(=O)C(CCSC)NC12CCN(C(=S)NCc1ccccc1)CC2 (stereo not shown) [Example 160, 1-Butyl-3-(2-methylsulfanylethyl)-2-oxo-1,4,8-triazaspiro[4,5]decan-8-thiocarboxylic acid benzylamide]",42,63
,"CSCCC1NC2(CCN(C(=S)Nc3cccc(C)c3)CC2)N(Cc2ccccc2C#N)C1=O (stereo not shown) [Example 161, 1-(2-Cyanobenzyl)-3-(2-methylsulfanylethyl)-2-oxo-1,4,8-triazaspiro[4,5]decan-8-thiocarboxylic acid m-tolylamide]",33,53
38,"C#CCN1C(=O)C(CC(C)C)NC12CCN(C(=S)Nc1cccc(C(C)=O)c1)CC2 (stereo not shown) [Example 163, 3-Isobutyl-2-oxo-1-prop-2-ynyl-1,4,8-triazaspiro[4,5]decan-8-thiocarboxylic acid (3-acetylbenzol)amide]",34,
,"COC(=O)c1ccc(CN2C(=O)C(C(C)C)NC23CCN(C(=S)Nc2c(F)c(F)c(F)c(F)c2F)CC3)cc1 (stereo not shown) [Example 164, Methyl 4-(3-isopropyl-2-oxo-8-pentafluorobenzolthiocarbamoyl-1,4,8-triazaspiro[4,5]dec-1-ylmethyl)benzoate]",58,42
,"CSCCC1NC2(CCN(C(=S)NCC3CCCO3)CC2)N(Cc2ccc(F)cc2)C1=O (stereo not shown) [Example 168, 1-(4-Fluorobenzyl)-3-(2-methylsulfanylethyl)-2-oxo-1,4,8-triazaspiro[4,5]decan-8-thiocarboxylic acid (tetrahydrofuran-2-ylmethyl)amide]",35,38
,"CC(C)CC1NC2(CCN(C(=S)Nc3cc(C(F)(F)F)cc(C(F)(F)F)c3)CC2)N(Cc2ccccc2C#N)C1=O (stereo not shown) [Example 169, 1-(2-Cyanobenzyl)-3-isobutyl-2-oxo-1,4,8-triazaspiro[4,5]decan-8-thiocarboxylic acid (3,5-bis-trifluoromethylbenzol)amide]",44,91
,"CC(C)CC1NC2(CCN(C(=S)NCc3ccccc3)CC2)N(Cc2ccccc2C#N)C1=O (stereo not shown) [Example 170, 1-(2-Cyanobenzyl)-3-isobutyl-2-oxo-1,4,8-triazaspiro[4,5]decan-8-thiocarboxylic acid benzylamide]",46,53
,"CSCCC1NC2(CCN(C(=S)Nc3ccc(Cl)cc3)CC2)N(Cc2cccc(C#N)c2)C1=O (stereo not shown) [Example 172, 1-(3-Cyanobenzyl)-3-(2-methylsulfanylethyl)-2-oxo-1,4,8-triazaspiro[4,5]decan-8-thiocarboxylic acid (4-chlorobenzol)amide]",47,59
,"CCCCN1C(=O)C(CCSC)NC12CCN(C(=S)Nc1c(F)c(F)c(F)c(F)c1F)CC2 (stereo not shown) [Example 173, 1-Butyl-3-(2-methylsulfanylethyl)-2-oxo-1,4,8-triazaspiro[4,5]decan-8-thiocarboxylic acid pentafluorobenzolamide-amide]",45,40
,"CN1C(=O)C(Cc2ccccc2)NC12CCN(C(=S)NCc1ccc(Cl)cc1)CC2 (stereo not shown) [Example 175, 3-Benzyl-1-methyl-2-oxo-1,4,8-triazaspiro[4,5]decan-8-thiocarboxylic acid 4-chlorobenzylamide]",32,63
,"CSCCC1NC2(CCN(C(=S)NC(C)c3ccccc3)CC2)N(Cc2cccc(C#N)c2)C1=O (stereo not shown) [Example 181, 1-(3-Cyanobenzyl)-3-(2-methylsulfanylethyl)-2-oxo-1,4,8-triazaspiro[4,5]decan-8-thiocarboxylic acid (1-benzol-ethyl)amide]",40,57
,"COc1ccccc1NC(=S)N1CCC2(CC1)NC(CCSC)C(=O)N2Cc1ccccc1C#N (stereo not shown) [Example 183, 1-(2-Cyanobenzyl)-3-(2-methylsulfanylethyl)-2-oxo-1,4,8-triazaspiro[4,5]decan-8-thiocarboxylic acid (2-methoxy-benzol)amide]",29,37
,"COc1ccccc1NC(=S)N1CCC2(CC1)NC(CCSC)C(=O)N2Cc1cccc(C#N)c1 (stereo not shown) [Example 184, 1-(3-Cyanobenzyl)-3-(2-methylsulfanylethyl)-2-oxo-1,4,8-triazaspiro[4,5]decan-8-thiocarboxylic acid (2-methoxy-benzol)amide]",32,36
,"CSCCC1NC2(CCN(C(=S)NCc3ccc(Cl)cc3)CC2)N(Cc2ccccc2C#N)C1=O (stereo not shown) [Example 193, 1-(2-Cyanobenzyl)-3-(2-methylsulfanylethyl)-2-oxo-1,4,8-triazaspiro[4,5]decan-8-thiocarboxylic acid 4-chlorobenzylamide]",32,72
,"C#CCN1C(=O)C(CC(C)C)NC12CCN(C(=S)Nc1cc(Cl)cc(Cl)c1)CC2 (stereo not shown) [Example 195, 3-Isobutyl-2-oxo-1-prop-2-ynyl-1,4,8-triazaspiro[4,5]decan-8-thiocarboxylic acid (3,5-dichlorobenzol)amide]",30,77
,"CCOC(=O)CN1C(=O)C(CCSC)NC12CCN(C(=O)Nc1ccccc1)CC2 (stereo not shown) [Example 203, Ethyl[3-(2-methylsulfanylethyl)-2-oxo-8-benzolcarbamoyl-1,4,8-triazaspiro[4,5]dec-1-yl]-acetate]",40,32
46,"CCCCN1C(=O)C(C(C)C)NC12CCN(C(=O)Nc1cc(OC)ccc1OC)CC2 (stereo not shown) [Example 216, 1-Butyl-3-isopropyl-2-oxo-1,4,8-triazaspiro[4,5]decan-8-carboxylic acid (2,5-dimethoxy-benzol)amide]",30,
,"CC(C)CC1NC2(CCN(C(=O)NCc3ccc(Cl)c(Cl)c3)CC2)N(Cc2ccccc2C#N)C1=O (stereo not shown) [Example 217, 1-(2-Cyanobenzyl)-3-isobutyl-2-oxo-1,4,8-triazaspiro[4,5]decan-8-carboxylic acid 3,4-dichlorobenzylamide]",39,78
,"CSCCC1NC2(CCN(C(=O)Nc3ccc(OC(F)(F)F)cc3)CC2)N(C)C1=O (stereo not shown) [Example 222, 1-Methyl-3-(2-methylsulfanylethyl)-2-oxo-1,4,8-triazaspiro[4,5]decan-8-carboxylic acid (4-trifluoromethoxy-benzol)amide]",30,48
,"CSCCC1NC2(CCN(C(=O)NCc3ccc(Cl)c(Cl)c3)CC2)N(Cc2ccccc2C#N)C1=O (stereo not shown) [Example 229, 1-(2-Cyanobenzyl)-3-(2-methylsulfanylethyl)-2-oxo-1,4,8-triazaspiro[4,5]decan-8-carboxylic acid 3,4-dichlorobenzylamide]",40,69

SMILES,"Uptake_5-HT, rat, 1 μM, % inhibition (5-HT transporter) [%]","Uptake (NA), rat, 10 μM, % inhibition (NA transporter) [%]",BTX Inhibition [1]
"CSCCC1NC2(CCN(S(=O)(=O)c3ccc(C(C)=O)cc3)CC2)N(Cc2cccc(C#N)c2)C1=O (stereo not shown) [Example 10, 3-[8-(4-Acetylbenzolsulfonyl)-3-(2-methylsulfanylethyl)-2-oxo-1,4,8-triazaspiro[4,5]dec-1-ylmethyl]-benzonitrile]",35,39,
"C#CCN1C(=O)C(Cc2ccccc2)NC12CCN(S(=O)(=O)c1ccccc1C(F)(F)F)CC2 (stereo not shown) [Example 39, 3-Benzyl-1-prop-2-ynyl-8-(2-trifluoromethylbenzolsulfonyl)-1,4,8-triazaspiro[4,5]decan-2-one]",38,41,39
"CCOC(=O)CN1C(=O)C(Cc2ccccc2)NC12CCN(S(=O)(=O)c1cc([N+](=O)[O-])ccc1C)CC2 (stereo not shown) [Example 46, Ethyl[3-benzyl-8-(2-methyl-5-nitrobenzolsulfonyl)-2-oxo-1,4,8-triazaspiro[4,5]dec-1-yl]-acetate]",90,33,30
